The text below walks through data of paper PMC7376644 (Pharmacology Research & Perspectives, 2020).

Series [1] deals with CYP1A2. As to the kind of experiment: CYP selective diagnostic inhibition studies in HLM, furafylline. It is filed as in vitro ADME, human. Conditions: furafylline 10 µmol/L. On the procedure: (§1) Reactions were carried out in triplicate in 96 well plates. Each reaction was measured at 2 time points, that is at 0 and 30 minutes. […] Furafylline, KTZ, ticlopidine, and quinidine were used as diagnostic inhibitors for CYP 1A2, 3A4/5, 2C19 and 2D6, respectively. The reactions were initiated by addition of NADPH after a pre‐incubation of 5 minutes at 37°C. All reactions were terminated by the addition of 150 µL ice‐cold ACN. Internal standard (0.2 µmol/L DPZ) was added to ACN prior to termination of the assay. This was followed by centrifugation at 4500 g for 20 minutes. An aliquot (50 µL) supernatant was collected and 5 µL was injected and analyzed by liquid chromatography/tandem mass spectrometry (LC/MS/MS). The percent effect of each inhibitor was the estimated contribution of the inhibited CYP calculated using the relationship below: %contribution=amount remaining with inhibitor‐amount remaining without inhibitor/amount remaining without inhibitor×100.

For a further series, the system named is CYP2D6. Put plainly: CYP selective diagnostic inhibition studies in HLM, quinidine. The class given is in vitro ADME, human. Conditions: quinidine 10 µmol/L. Here is the method: as §1
Series [2] relates to CYP2C19. As to the kind of experiment: CYP selective diagnostic inhibition studies in HLM, ticlopidine. It is filed as in vitro ADME, human. The conditions noted are these: ticlopidine 10 µmol/L. Here is the method: as §1
The next series relates to CYP3A4/5. Put plainly: CYP selective diagnostic inhibition studies in HLM, ketoconazole. The class given is in vitro ADME, human. Conditions: ketoconazole 10 µmol/L. Here is the method: as §1
In series [3] the test system is HLM. As to the kind of experiment: Intrinsic clearance, substrate depletion approach. It is filed as in vitro ADME, human. Conditions: HLM, substrate depletion, well‐stirred model. Here is the method: The generic conditions were previously described by Masimirembwa and co‐workers. ^24 , ^25 Each reaction mixture consisted of substrate incubated with appropriate enzyme, substrate, and NADPH in potassium phosphate buffer pH 7.4 in a final volume of 200 µL. The substrate was diluted to 40% ACN so that the percent organic component in the final solution was maintained at 1%. The reactions were quenched with 3 volumes of stop solution containing ACN and 0.8% formic acid at 0, 5, 10, 20, 30, 40, and 60 minutes. This was followed by centrifugation at 4500 g for 20 minutes. An aliquot (50 µL) supernatant was collected and diluted (1:1) in water prior to LC‐MS/MS analysis.
Each reaction was monitored over 7 time points.
(§2) The well‐stirred model was used to estimate the hepatic clearance (CLH) due to metabolism.

Series [4] concerns HLM. Put plainly: Enzyme kinetics of hydroxylated metabolites formation. It is filed as in vitro ADME, human. On the procedure:
The reactions were carried out in duplicate at each time point. Incubation conditions used for the determination of K M and V max were optimized for linearity with respect to time and protein concentrations. […] Metabolites were analyzed by LC‐MS/MS as described below. The K M and V max values of each marker substrate were determined using nonlinear least squares regression analysis in GraFit software (version 3.0, Erithacus Software Limited) and SigmaPlot Enzyme Kinetics Module for Windows 7.0 (SPSS, Inc). […]

Series [5] in a line: Simcyp prediction of total hepatic clearance. On the set-up: species or system human. Here is the method: The clearance of the incubation mixture was expressed as μL/min/pmol for rCYP.
as §2

The conditions of series [6]: cited from earlier work.
The conditions of series [7]: cited from earlier work. This is another data set of the same source.
Series [8] concerns the target T1, CYP1A2 (Homo sapiens, UniProt P05177).
T1 sequence (P05177 1-516): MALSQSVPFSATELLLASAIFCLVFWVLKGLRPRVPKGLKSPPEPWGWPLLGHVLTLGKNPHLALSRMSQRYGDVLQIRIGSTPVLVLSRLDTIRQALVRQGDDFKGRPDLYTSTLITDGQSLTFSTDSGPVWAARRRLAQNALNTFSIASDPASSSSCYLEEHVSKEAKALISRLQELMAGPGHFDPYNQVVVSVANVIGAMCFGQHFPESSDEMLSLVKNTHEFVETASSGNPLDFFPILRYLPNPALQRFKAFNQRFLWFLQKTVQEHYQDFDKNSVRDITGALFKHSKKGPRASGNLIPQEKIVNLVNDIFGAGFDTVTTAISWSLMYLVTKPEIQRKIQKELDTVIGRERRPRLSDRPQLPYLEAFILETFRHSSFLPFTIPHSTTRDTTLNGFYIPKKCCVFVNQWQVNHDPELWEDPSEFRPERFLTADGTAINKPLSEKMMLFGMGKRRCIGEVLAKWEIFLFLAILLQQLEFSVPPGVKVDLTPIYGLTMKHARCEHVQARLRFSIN
As to the kind of experiment: Enzyme kinetics of hydroxylated metabolites formation. It is filed as in vitro ADME. On the set-up: purchased CYPEX CYP001; host or cells: Escherichia coli. The conditions noted are these: CYP1A2, formation of cis‐4‐OH‐PZQ. Here is the method:
(§3) The reactions were carried out in duplicate at each time point. Incubation conditions used for the determination of K M and V max were optimized for linearity with respect to time and protein concentrations. […] Metabolites were analyzed by LC‐MS/MS as described below. The K M and V max values of each marker substrate were determined using nonlinear least squares regression analysis in GraFit software (version 3.0, Erithacus Software Limited) and SigmaPlot Enzyme Kinetics Module for Windows 7.0 (SPSS, Inc).
as §2

For series [9], the target named is CYP2C19 (Homo sapiens, UniProt P33261). Described as above. The class given is in vitro ADME. Also noted: purchased CYPEX CYP008; host or cells: Escherichia coli. Conditions: CYP2C19, formation of cis‐4‐OH‐PZQ. On the procedure:
as §3, §2

For series [10] the following is noted: cited from earlier work; for Increase of exposure with KTZ: PZQ metabolism inhibited by KTZ.

Sequence of CYP2C19 (Homo sapiens, UniProt P33261) (P33261 whole entry): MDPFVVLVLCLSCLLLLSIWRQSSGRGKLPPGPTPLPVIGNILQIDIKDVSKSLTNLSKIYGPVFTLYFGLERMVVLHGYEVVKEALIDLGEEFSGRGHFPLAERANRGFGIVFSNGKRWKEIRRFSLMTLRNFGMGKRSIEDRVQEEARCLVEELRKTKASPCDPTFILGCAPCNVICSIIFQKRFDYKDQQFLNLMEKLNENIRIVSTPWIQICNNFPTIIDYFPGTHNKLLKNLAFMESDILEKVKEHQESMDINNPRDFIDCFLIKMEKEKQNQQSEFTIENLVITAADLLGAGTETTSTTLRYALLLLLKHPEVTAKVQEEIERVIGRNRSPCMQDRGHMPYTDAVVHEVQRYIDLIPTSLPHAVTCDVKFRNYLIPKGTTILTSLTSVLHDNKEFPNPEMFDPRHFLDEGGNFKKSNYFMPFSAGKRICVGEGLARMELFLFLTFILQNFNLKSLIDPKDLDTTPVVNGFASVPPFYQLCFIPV

`O=C(C1CCCCC1)N1CC(=O)N2CCc3ccccc3C2C1` (stereo not drawn) [PZQ, praziquantel]: the “Contribution of CYP1A2” value in the series with CYP1A2 [1] was −54%. Also, the “Contribution of CYP2D6” value in the series with CYP2D6 was determined as 35%. Further, in the series on CYP2C19 [2], the “Contribution of CYP2C19” value is listed as 127%. Besides, the “Contribution of CYP3A4/5” value in the series with CYP3A4/5 is 97%. Moreover, the “Predicted CLH” value with HLM [3] was 11.70 mL/min/kg. Besides, the figures for the “K M [SD]” value with HLM [4] (formation of X‐OH‐PZQ) and in the series with HLM [4] (formation of cis‐4‐OH‐PZQ) were 118.6 [35.79] µmol/L and 32.60 [3.982] µmol/L, respectively. The “V max [SD]” value in the series with HLM [4] (formation of X‐OH‐PZQ) is 11.10 [2.074] nmol/min/mg protein; with HLM [4] (formation of cis‐4‐OH‐PZQ) it was 0.5978 [0.028] nmol/min/mg protein. Besides, the “Predicted total CLH (Simcyp)” value is on record as 11.44 mL/min/kg in series [5] (metabolite formation assay) and 3.656 mL/min/kg in series [5] (substrate depletion assay). In addition, the “Oral dose eliminated renally (unchanged drug and metabolites)” value in series [6] is “More than 80%”. Also, the Systemic bioavailability in series [6] is listed as under 20%. The Increase in bioavailability in series [6] (co‐administration with cimetidine) is 100%. In addition, in series [6] (in man), the “Drug excreted within 24 hours” value is “more than 80%”. The “Fraction unbound in plasma (fu)” value in [7] is 0.2. Also, the “CLuH,int” value at CYP1A2 [8] was found to be 6.870 mL/min/kg; at CYP2C19 [9] it was 4.600 mL/min/kg.
Regarding `O=C1CN(C(=O)[C@H]2CC[C@@H](O)CC2)CC2c3ccccc3CCN12` (stereo partly drawn) [cis‐4‐OH PZQ, cis‐4‐hydroxy‐PZQ], the “Increase of exposure with KTZ” value in series [10] was 57%.
As to `O=C(C1CCC(O)CC1)N1CC(=O)N2CCc3ccccc3C2C1` (stereo not drawn) [trans‐4‐OH PZQ, trans‐4‐hydroxy‐PZQ], in [10], the “Increase of exposure with KTZ” value is given as 67%. The “Amount relative to cis 4‐OH PZQ in vivo” value in [10] (ref NLeya et al (19)) is recorded as 30 times.
